The target of data set [1] is T1, Cannabinoid receptor 2 (Homo sapiens, UniProt P34972). In words: Displacement of [3H]-CP55940 from human CB2 receptor expressed in CHO cells by liquid scintillation counting. The class given is cell-based.
The species entered for a further data set is Homo sapiens. In words: Selectivity ratio of Ki for human CB2 receptor to Ki for human CB1 receptor.
Data set [2] has as its target T2, Cannabinoid receptor 1 (Homo sapiens, UniProt P21554). Kind of data set: Displacement of [3H]-CP55940 from human CB1 receptor expressed in CHO cells by liquid scintillation counting. The data set is classed as cell-based.
The nature of data set [3]: physchem. The note with it: phosphate buffer, pH 4.
Description: Thermodynamic solubility of the compound in phosphate buffer at pH 4 after 24 hrs by HPLC analysis
Data set [4] can be described thus: Lipophilicity, log D of the compound at pH 7.4. Conditions: buffer.
Data set [5] in a line: physchem. The note with it: phosphate buffer, pH 7.4.
Description: Thermodynamic solubility of the compound in phosphate buffer at pH 7.4 after 24 hrs by HPLC analysis
In data set [6] the target is T1, Cannabinoid receptor 2. Kind of data set: Agonist activity at human CB2 receptor expressed in CHO cells assessed as inhibition of forskolin-stimulated cAMP accumulation after 20 mins. The class given is functional, cell-based.
Data set [7] concerns the target Cannabinoid receptor 1 (Rattus norvegicus) (UniProt P20272). Kind of data set: (§1) Activation of CB1 receptor in Wistar rat prelimbic prefrontal cortex assessed as reduction of field excitatory postsynaptic potential amplitude after 20 mins. The class given is tissue-based.
Data set [8] addresses Cannabinoid receptor 1 (Rattus norvegicus, UniProt P20272). The data set is described as §1. The class given is tissue-based.
The target in data set [9] is T2, Cannabinoid receptor 1. Kind of data set: Agonist activity at human CB1 receptor expressed in CHO cells assessed as stimulation of [3H]-arachidonic acid release. The data set is classed as functional, cell-based.
A short description of data set [10]: Dissociation constant, pKa of the compound by fast UV-metric method. The data set is classed as physicochemical.
Data set [11] concerns the target Cannabinoid receptor 1 (Rattus norvegicus) (UniProt P20272). In words: Activation of CB1 receptor in Wistar rat prelimbic prefrontal cortex assessed as reduction of field excitatory postsynaptic potential amplitude after 20 mins relative to baseline. The data set is classed as tissue-based.
Data set [12] is described as follows: Apparent permeability from apical to basolateral side in human Caco2 cells by LC-MS/MS analysis. The note with it: Caco-2.
Data set [13] in a line: physchem. The note with it: 0.01 M phosphate buffered saline, pH 7.4.
Data set [14] is described as follows: physchem. Conditions: 0.01 M phosphate buffered saline, pH 7.4. The source holds these as a separate data set.

The text below walks through data of ChEMBL document CHEMBL1828497, “Novel indole and azaindole (pyrrolopyridine) cannabinoid (CB) receptor agonists: design, synthesis, structure-activity relationships, physicochemical properties and biological activity” (Eur J Med Chem, 2011).

≈ marks a conversion by molar mass, not a printed value.

T2 sequence (P21554 whole entry): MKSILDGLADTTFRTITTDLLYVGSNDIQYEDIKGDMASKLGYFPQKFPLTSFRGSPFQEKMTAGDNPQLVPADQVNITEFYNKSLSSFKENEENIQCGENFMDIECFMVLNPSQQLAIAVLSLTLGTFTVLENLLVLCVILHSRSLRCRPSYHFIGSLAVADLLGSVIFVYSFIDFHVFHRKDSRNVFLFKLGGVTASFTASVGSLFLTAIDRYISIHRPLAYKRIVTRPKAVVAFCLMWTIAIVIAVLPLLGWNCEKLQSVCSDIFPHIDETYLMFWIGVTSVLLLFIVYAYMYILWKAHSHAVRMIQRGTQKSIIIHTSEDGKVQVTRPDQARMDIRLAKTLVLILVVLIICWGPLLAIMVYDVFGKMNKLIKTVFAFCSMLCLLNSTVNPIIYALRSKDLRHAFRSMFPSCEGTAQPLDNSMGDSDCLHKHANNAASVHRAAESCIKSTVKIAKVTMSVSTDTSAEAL
T1 sequence (P34972 whole entry): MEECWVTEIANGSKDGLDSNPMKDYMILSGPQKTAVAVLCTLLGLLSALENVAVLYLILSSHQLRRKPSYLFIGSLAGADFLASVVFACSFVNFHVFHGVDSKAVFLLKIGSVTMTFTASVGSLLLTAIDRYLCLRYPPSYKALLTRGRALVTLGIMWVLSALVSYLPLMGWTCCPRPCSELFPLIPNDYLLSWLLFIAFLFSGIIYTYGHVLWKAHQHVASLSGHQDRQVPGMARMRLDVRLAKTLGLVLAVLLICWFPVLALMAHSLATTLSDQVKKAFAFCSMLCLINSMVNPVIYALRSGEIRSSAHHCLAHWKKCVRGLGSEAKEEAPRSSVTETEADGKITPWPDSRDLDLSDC
Cannabinoid receptor 1 (Rattus norvegicus, UniProt P20272), sequence (P20272 whole entry): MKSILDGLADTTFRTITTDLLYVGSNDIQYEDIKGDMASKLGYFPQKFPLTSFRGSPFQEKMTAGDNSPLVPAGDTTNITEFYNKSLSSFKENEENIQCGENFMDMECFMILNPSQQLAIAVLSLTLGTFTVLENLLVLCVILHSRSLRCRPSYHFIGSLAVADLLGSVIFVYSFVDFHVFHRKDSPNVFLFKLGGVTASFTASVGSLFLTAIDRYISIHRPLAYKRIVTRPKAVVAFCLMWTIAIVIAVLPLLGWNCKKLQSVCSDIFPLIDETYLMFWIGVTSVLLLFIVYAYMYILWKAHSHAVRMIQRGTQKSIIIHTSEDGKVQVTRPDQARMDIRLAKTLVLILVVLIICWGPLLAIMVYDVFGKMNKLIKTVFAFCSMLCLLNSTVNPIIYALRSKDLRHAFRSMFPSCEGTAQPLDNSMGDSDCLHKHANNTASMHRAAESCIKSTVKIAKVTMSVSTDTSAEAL
Cannabinoid receptor 1 (Rattus norvegicus), sequence (P20272 whole entry): as above

Consider `COCCn1cc(C(=O)Nc2ccc3ccccc3c2)c2ccccc21`, for which the inhibitory constant (Ki) at Cannabinoid receptor 2 [1] is 316 nM; on Cannabinoid receptor 1 [2], above 1000 nM. Besides, in the data set listed under Homo sapiens, the Ratio Ki is below 0.3. The solubility (thermodynamic) at 24 h in the data set “physchem [3]” and in “physchem [5]” was below 1 µM throughout. The compound also gave a log distribution coefficient (logD) in [4] of 3.69.

For `CCCCCn1cc(C(=O)c2cccc3ccccc23)c2cccnc21`, the half-maximal effective concentration (EC50) on Cannabinoid receptor 2 [6] was 158 nM; at Cannabinoid receptor 1 [9] it was 31.6 nM. In addition, the results for the Ki on Cannabinoid receptor 2 [1] and at Cannabinoid receptor 1 [2] were 50.1 nM and 12.6 nM, respectively. Moreover, the Ratio Ki in the data set listed under Homo sapiens amounted to 4. In addition, in [7], the inhibition result is “Dose-dependent effect”. Also, the IC50 at Cannabinoid receptor 1 [8] was 520 nM. The solubility (thermodynamic) at 24 h in the data set “physchem [3]” and in “physchem [5]” was 1 µM (≈ 0.342 µg/mL) in each case. The logD in data set [4] was above 5. The same compound showed a pKa in [10] below 2. Besides, the Emax in data set [11] was 67.1%.

Consider `COCCn1cc(C(=O)c2cccc(-c3ccccc3)c2)c2ccccc21`, for which the values for the inhibition constant (Ki) on Cannabinoid receptor 2 [1] and at Cannabinoid receptor 1 [2] were above 1000 nM and 251 nM, respectively. Besides, the Ratio Ki in the data set listed under Homo sapiens was above 4. Moreover, the thermodynamic solubility at 24 h in the data set “physchem [3]” and in the data set “physchem [5]” was below 1 µM in each case. In data set [4], the logD amounted to 4.4.

`COCCn1cc(C(=O)c2ccc(-c3ccccc3)cc2)c2ccccc21`: the Ki on Cannabinoid receptor 2 [1] and at Cannabinoid receptor 1 [2] was above 1000 nM each time. Besides, the solubility (thermodynamic) at 24 h in “physchem [3]” and in the data set “physchem [5]” was below 1 µM in each case. Also, the logD in data set [4] came out at 4.5.

Consider `CCCCCn1cc(C(=O)c2cccc3ccccc23)c2ccncc21`, for which the results for the Ki on Cannabinoid receptor 2 [1] and on Cannabinoid receptor 1 [2] were 501 nM and 158 nM, respectively. Further, the Ratio Ki in the data set filed under Homo sapiens was found to be 3. The Papp A→B in data set [12] was found to be 13 ×10⁻⁶ cm/s. Besides, the kinetic solubility in “physchem [13]” was found to be 3 µM (≈ 1.03 µg/mL); in the data set “physchem [14]”, 10 µM (≈ 3.42 µg/mL). In addition, on Cannabinoid receptor 1 [9], the EC50 is 100 nM. Moreover, in [4], the logD stood at 4.72. Besides, the solubility (thermodynamic) at 24 h in the data set “physchem [5]” was found to be 4 µM (≈ 1.37 µg/mL). The same compound yielded a pKa in data set [10] of 5.83.

`COCCn1cc(C(=O)Nc2cccc3ccccc23)c2ccccc21`: at Cannabinoid receptor 2 [6], the EC50 was 6.31 nM. In addition, the Ki at Cannabinoid receptor 2 [1] is 251 nM; at Cannabinoid receptor 1 [2], above 1000 nM. Besides, the Ratio Ki in the data set listed under Homo sapiens was below 0.3. For the same compound, the apparent permeability from apical to basolateral (Papp A→B) in [12] was found to be 27 ×10⁻⁶ cm/s. Also, the solubility (kinetic) amounted to 30 µM (≈ 10.3 µg/mL) in the data set “physchem [13]” and 100 µM (≈ 34.4 µg/mL) in “physchem [14]”. Also, the solubility (thermodynamic) at 24 h in “physchem [3]” and in the data set “physchem [5]” was 3 µM (≈ 1.03 µg/mL) throughout. For the same compound, the logD in [4] is 2.94.

`CCCCCCC(C)(C)c1ccc([C@@H]2C[C@H](O)CC[C@H]2CCCO)c(O)c1` [CP-55940]: the Papp A→B in [12] amounted to 5.7 ×10⁻⁶ cm/s. Also, the kinetic solubility came out at 30 µM (≈ 11.3 µg/mL) in “physchem [13]” and 100 µM (≈ 37.7 µg/mL) in “physchem [14]”. The thermodynamic solubility at 24 h in the data set “physchem [3]” and in the data set “physchem [5]” was 2 µM (≈ 0.753 µg/mL) in each case. In [4], the logD is above 5. In [10], this compound registered a pKa of 11.2.

Take `COCCn1cc(C(=O)c2cccc3ccccc23)c2cccnc21`: the EC50 at Cannabinoid receptor 2 [6] and on Cannabinoid receptor 1 [9] was above 1000 nM throughout. Further, the Ki is 200 nM at Cannabinoid receptor 2 [1] and 501 nM at Cannabinoid receptor 1 [2]. Moreover, in the data set filed under Homo sapiens, the Ratio Ki came out at 0.4. For the same compound, the apical-to-basolateral permeability (Papp A→B) in data set [12] is 26 ×10⁻⁶ cm/s. Also, the kinetic solubility is 10 µM (≈ 3.3 µg/mL) in the data set “physchem [13]” and 65 µM (≈ 21.5 µg/mL) in the data set “physchem [14]”. The thermodynamic solubility at 24 h in the data set “physchem [3]” and in the data set “physchem [5]” was 3 µM (≈ 0.991 µg/mL) each time. Moreover, the logD in data set [4] came to 3.57. Besides, the pKa in [10] is below 2.

As to `COCCn1cc(C(=O)c2cccc3ccccc23)c2ccncc21`, the Ki is 25.1 nM at Cannabinoid receptor 2 [1] and above 1000 nM at Cannabinoid receptor 1 [2]. Also, the Ratio Ki in the data set listed under Homo sapiens was below 0.03. For the same compound, the EC50 on Cannabinoid receptor 1 [9] was above 1000 nM. Also, the logD in data set [4] is 3.13. In addition, the pKa in [10] came out at 5.8.

On to `CCCCCn1cc(C(=O)c2cccc(-c3ccccc3)c2)c2ccccc21`, for which the Ki was 63.1 nM at Cannabinoid receptor 2 [1] and 7.94 nM at Cannabinoid receptor 1 [2]. For the same compound, the Ratio Ki in the data set filed under Homo sapiens amounted to 9. In addition, the pH-dependent lipophilicity (logD) in data set [4] was above 5. Also, the solubility (thermodynamic) at 24 h in “physchem [5]” was below 1 µM.

As to `CCCCCn1cc(C(=O)Nc2cccc3ccccc23)c2ccccc21`, the EC50 at Cannabinoid receptor 2 [6] is 7.94 nM; at Cannabinoid receptor 1 [9] it was 10 nM. Besides, the values for the Ki at Cannabinoid receptor 2 [1] and at Cannabinoid receptor 1 [2] were 100 nM and 1.26 nM, respectively. Also, the Ratio Ki in the data set filed under Homo sapiens came to 79. In addition, the inhibition entry in [7] is “Dose-dependent effect”. Moreover, the 50% inhibitory concentration (IC50) on Cannabinoid receptor 1 [8] was 450 nM. For the same compound, the solubility (thermodynamic) at 24 h in “physchem [3]” and in the data set “physchem [5]” was below 1 µM each time. For the same compound, the logD in data set [4] is above 5. In data set [11], the maximum response (Emax) amounted to 78.1%.

As for `CCCCCn1cc(C(=O)c2ccccc2-c2ccccc2)c2ccccc21`, the figures for the inhibitory constant (Ki) on Cannabinoid receptor 2 [1] and on Cannabinoid receptor 1 [2] were 7.94 nM and 6.31 nM, respectively. Besides, the Ratio Ki in the data set filed under Homo sapiens came to 1. Further, in data set [4], the logD is above 5. For the same compound, the solubility (thermodynamic) at 24 h in “physchem [5]” is below 1 µM.

`CCCCCn1cc(C(=O)c2ccc(-c3ccccc3)cc2)c2ccccc21`: the Ki on Cannabinoid receptor 2 [1] is 39.8 nM; on Cannabinoid receptor 1 [2], 31.6 nM. In addition, in the data set listed under Homo sapiens, the Ratio Ki came out at 1. In addition, the solubility (thermodynamic) at 24 h in the data set “physchem [3]” and in “physchem [5]” was below 1 µM throughout. This compound also returned a pH-dependent lipophilicity (logD) in data set [4] above 5.

For the compound `CCCCCn1cc(C(=O)c2cccc3ccccc23)c2ccccc21`, the EC50 on Cannabinoid receptor 2 [6] and at Cannabinoid receptor 1 [9] was 5.01 nM each time. Further, the Ki on Cannabinoid receptor 2 [1] is 6.31 nM; at Cannabinoid receptor 1 [2], 2 nM. Besides, the Ratio Ki in the data set filed under Homo sapiens stood at 3. For the same compound, the inhibition entry in data set [7] was “Dose-dependent effect”. For the same compound, the IC50 at Cannabinoid receptor 1 [8] came out at 280 nM. In addition, the solubility (thermodynamic) at 24 h in “physchem [3]” and in “physchem [5]” was below 1 µM each time. This compound displayed a logD in [4] above 5. The Emax in [11] amounted to 73.5%.

In the case of `CCCCCn1cc(C(=O)Nc2ccc3ccccc3c2)c2ccccc21`, the EC50 is 5010 nM at Cannabinoid receptor 2 [6] and above 1000 nM at Cannabinoid receptor 1 [9]. The Ki was 631 nM on Cannabinoid receptor 2 [1] and 63.1 nM on Cannabinoid receptor 1 [2]. The Ratio Ki in the data set listed under Homo sapiens amounted to 10. For the same compound, the thermodynamic solubility at 24 h in the data set “physchem [3]” and in “physchem [5]” was below 1 µM each time. For the same compound, the logD in data set [4] was above 5.

`Cc1c(C(=O)c2cccc3ccccc23)c2cccc3c2n1[C@H](CN1CCOCC1)CO3` [WIN-552122]: the Papp A→B in data set [12] is 12.1 ×10⁻⁶ cm/s. Besides, the kinetic solubility amounted to 3 µM (≈ 1.28 µg/mL) in the data set “physchem [13]” and 20 µM (≈ 8.53 µg/mL) in the data set “physchem [14]”. Also, the solubility (thermodynamic) at 24 h worked out at 8 µM (≈ 3.41 µg/mL) in the data set “physchem [3]” and 5 µM (≈ 2.13 µg/mL) in “physchem [5]”. Also, the logD in [4] came out at 4.08. The same compound gave a pKa in data set [10] of 4.14.

With `COCCn1cc(C(=O)c2ccccc2-c2ccccc2)c2ccccc21`, the Ki at Cannabinoid receptor 2 [1] was 631 nM; on Cannabinoid receptor 1 [2], 251 nM. Also, the Ratio Ki in the data set filed under Homo sapiens amounted to 3. The solubility (thermodynamic) at 24 h in the data set “physchem [3]” and in “physchem [5]” was below 1 µM each time. The logD in data set [4] was 3.31.

For the compound `CCCCCn1cc(C(=O)c2cccc3ccccc23)c2cnccc21`, the values for the Ki at Cannabinoid receptor 2 [1] and at Cannabinoid receptor 1 [2] were 50.1 nM and 316 nM, respectively. Besides, the EC50 at Cannabinoid receptor 1 [9] is 50.1 nM. The pKa in [10] was 6.49.

As to `CCCCCCC(C)(C)c1cc(O)c2c(c1)OC(C)(C)C1CCC(=O)CC21` (stereo not given) [NABILONE], the half-maximal effective concentration (EC50) on Cannabinoid receptor 2 [6] is 15.8 nM. Besides, the Ki is 6.31 nM on Cannabinoid receptor 2 [1] and 3.98 nM on Cannabinoid receptor 1 [2]. For the same compound, the Ratio Ki in the data set listed under Homo sapiens came out at 1.7. For the same compound, the solubility (thermodynamic) at 24 h in “physchem [3]” and in “physchem [5]” was below 1 µM throughout. For the same compound, in data set [4], the logD is above 5. Besides, the pKa in [10] turned out to be 10.6.
